From a melting point compilation (Tetko et al.)

Row | SMILES | melting point [°C]
1 | CC1CC(C(=O)O)CC(C)O1 (centres undefined) | 109 to 111
2 | CCN(CC)S(=O)(=O)c1ccc(N2CCCCC2)c(N)c1 | 75 to 77
3 | O=C(O)COc1ccc(F)cc1Br | 142 to 144
4 | O=[N+]([O-])c1ccc(OCC(F)(F)F)cc1 | 73 to 75
5 | COc1ccc(CCN)c(O)c1 | 98 to 100
6 | Cc1cc(CC(=O)O)n[nH]1 | 116 to 118
7 | NC(=O)N1CCCC1CO (centres undefined) | 94 to 96
8 | CCn1cnnc1CNC(=O)OCC(F)(F)F | 102 to 104
9 | O=C(O)CNC(=O)c1cccc([N+](=O)[O-])c1 | 90 to 92
10 | Cc1cn(-c2ccccc2Cl)nc1C(=O)O | 209 to 211
11 | CN(C)CCCNS(=O)(=O)c1cccc(C#N)c1 | 101 to 103
12 | ClCc1nc2cc(Cl)ccc2s1 | 99 to 101
13 | O=c1sc2ccccc2nc1NO | 244 to 246
14 | CC(C)(C)OC(=O)NC1CCCC(C(=O)O)C1 (centres undefined) | 126 to 128
15 | O=C1NCC2(CCCCC2)O1 | 96 to 98
16 | Cc1nc2sc(C(=O)O)c(C)c2c(=O)[nH]1 | 388 to 390
17 | NC(=O)CCc1ccccc1 | 100 to 102
18 | O=S(=O)(Cl)c1ccc(S(=O)(=O)N2CCCCC2)cc1 | 151 to 153
19 | CCOC(C)c1nc(CC(=O)O)cs1 (centres undefined) | 91 to 93
20 | Cc1cc2c(Cl)ncnc2s1 | 79 to 81
21 | O=S(=O)(Cl)c1ccc(C2CCCCC2)cc1 | 49 to 51
22 | O=C(CCl)c1ccc2c(c1)-c1ccccc1C2 | 133 to 135
23 | Cc1ccnc(Br)c1N | 76 to 78
24 | O=C(O)c1ccc(N2CCCCC2)c(S(=O)(=O)N2CCCCC2)c1 | 196 to 198

Row | SMILES | melting point [°C]
25 | COC(=O)c1cc(S(=O)(=O)Cl)cnc1Cl | 48 to 50
26 | CC(C)(C)OC(=O)Nc1cn[nH]c1 | 179 to 181
27 | Nc1c(Br)c(=O)[nH]c(=O)n1Cc1ccccc1 | 235 to 237
28 | O=C(O)Cc1ccc2c(c1)CCC2 | 86 to 90
29 | CC(C)(C)CC(O)C(=O)O (centres undefined) | 71 to 73
30 | CCCNc1c(N)n(Cc2ccccc2)c(=O)[nH]c1=O | 210 to 212
31 | NC(=O)c1ccc(OCCCl)cc1 | 182 to 184
32 | CC(C)C(C(=O)O)c1cccc(Cl)c1 (centres undefined) | 82 to 84
33 | O=C(O)CCSCc1ccccn1 | 74 to 76
34 | Cc1cncc(C(=O)O)c1O | 249 to 251
35 | N#Cc1cccnc1-n1cccn1 | 114 to 116
36 | Oc1ccccc1-c1nnc2n1CCCCC2 | 271 to 273
37 | Nc1scnc1-c1ccccc1 | 130 to 132
38 | FC(F)(F)c1cnc(-n2cccn2)c(Cl)c1 | 50 to 52
39 | Cc1cc([N+](=O)[O-])ccc1OCCO | 93 to 95
40 | COc1cc(Cl)c(C(=O)CBr)cc1OC | 93 to 95
41 | N#CC1(N2CCCC2)CCNCC1 | 61 to 63
42 | COc1ccc(S(=O)(=O)Cl)cc1[N+](=O)[O-] | 58 to 60
43 | O=C(O)c1cc(-c2cccc(Cl)c2)nc2nc(N3CCCCC3)sc12 | 199 to 203
44 | Cc1ccc(S(=O)(=O)Cl)c(C)c1C(=O)O | 147 to 149
45 | O=C(O)CCCSc1ccccc1 | 66 to 68
46 | CNCC(O)COc1ccccc1C(F)(F)F (centres undefined) | 124 to 127
47 | CCOC=C(C#N)C(=O)O | 63 to 65
48 | NC(=O)Cn1cnc([N+](=O)[O-])c1 | 153 to 155

Row | SMILES | melting point [°C]
49 | Cc1c(Cl)ccc(C(=O)O)c1N | 208 to 210
50 | O=C(Cc1ccc(Cl)cc1Cl)c1ccc(F)cc1 | 108 to 110
51 | CC(C)Oc1ccc(/C=C/C(=O)O)cc1 | 156 to 158
52 | CC(Cl)C(=O)Nc1ccc(C(C)(C)C)cc1 (centres undefined) | 143 to 145
53 | Nc1ccc(N2CCNCC2)cn1 | 162 to 164
54 | O=C(O)c1ccccc1-n1ncc(Cl)c(Cl)c1=O | 155 to 156
55 | NS(=O)(=O)Cc1ccccc1Br | 118 to 120
56 | N#CCC(=O)Nc1ccc(C(=O)O)cc1 | 195 to 197
57 | COc1ccc(C(=O)CBr)cc1Cl | 99 to 101
58 | O=C(O)c1ccc(C(F)(F)F)[nH]c1=O | 161 to 163
59 | CCN(c1ccccc1)S(=O)(=O)c1cccc(C(=O)O)c1 | 175 to 177
60 | O=c1ccccn1CCBr | 126 to 128
61 | Nc1ccc(Sc2ccccc2)c(Cl)c1 | 55 to 57
62 | Cn1ccc2cc[nH]c(=O)c21 | 190 to 192
63 | Cc1cnc(C#N)c(C)c1 | 58 to 60
64 | O=C(c1cc(Br)c(S(=O)(=O)Cl)[nH]1)C(Cl)(Cl)Cl | 144 to 146
65 | CCCCc1ccc(NS(=O)(=O)c2ccc(N)cc2)cc1 | 159 to 161
66 | N#Cc1nnc2ccccc2c1Cl | 179 to 181
67 | COc1ccc(C(=O)C=C(SC)SC)cc1 | 99 to 101
68 | C1CNc2nn[nH]c2C1 | 163 to 165
69 | NCC(O)COCc1ccccc1 (centres undefined) | 74 to 76
70 | Cc1ccc2ncnc(Cl)c2c1 | 105 to 107
71 | Cc1cn2c(=O)c(C(=O)O)cnc2s1 | 239 to 241
72 | N#Cc1cnn(-c2ccccc2)n1 | 90 to 92

Row | SMILES | melting point [°C]
73 | NNc1c(F)cc(C(=O)NC2CC2)cc1F | 204 to 206
74 | CCOC(=O)c1c(-c2ccccc2)csc1NC(=O)C(C)Cl (centres undefined) | 250 to 252
75 | CC1(C)CCc2c(sc(N)c2C(=O)N2CCOCC2)C1 | 138 to 140
76 | O=C(O)CNC(=O)C(F)(F)F | 152 to 154
77 | O=C(O)c1ccc2c(c1)C(=O)N(c1ccc(F)cc1)C2=O | 295 to 297
78 | CNC(=O)c1cccc(N)n1 | 102 to 104
79 | CC(C)c1nn(C)c2sc(C(=O)O)cc12 | 209 to 211
80 | Cn1ccnc1C(=O)c1ccc(Cl)c([N+](=O)[O-])c1 | 145 to 147
81 | COC(C#N)c1ccc([N+](=O)[O-])cc1 (centres undefined) | 42 to 44
82 | Cc1ccc(NC(=O)C(Cl)c2ccccc2)cc1 (centres undefined) | 143 to 147
83 | O=C(O)COc1ccc(Oc2ccccc2)cc1 | 127 to 129
84 | O=C(O)CNC1=NS(=O)(=O)c2ccccc21 | 160 to 162
85 | Cc1ccc(-c2csc(Cl)n2)cc1 | 93 to 95
86 | CNS(=O)(=O)Cc1ccccc1CN | 130 to 132
87 | O=C(Nc1ncccc1O)c1ccc(C2SCCS2)cc1 | 114 to 116
88 | COc1cc(C#N)ccc1OCCCC(=O)O | 146 to 148
89 | Nc1ccc(S(=O)(=O)CC2CCCO2)cc1 (centres undefined) | 100 to 102
90 | COc1ccc(C(=O)NC(C(=O)O)c2ccccc2)cc1 (centres undefined) | 187 to 189
91 | Nc1cc(C(=O)O)cc(Cl)n1 | 289 to 291
92 | O=C(O)C1(S(=O)(=O)c2ccc(Br)cc2)CCCC1 | 138 to 140
93 | CC(=O)NC(C)(C)C(N)=NO | 163 to 165
94 | CS(=O)(=O)c1ccc(-c2nc(CCl)co2)cc1 | 129 to 131
95 | CNC(C(=O)O)c1ccccc1C(F)(F)F (centres undefined) | 290 to 292
96 | Cc1noc(COc2ccc(O)cc2)n1 | 62 to 64

Row | SMILES | melting point [°C]
97 | Nc1ccc(-n2cnc3ccccc32)cc1 | 104 to 106
98 | CC(C)(C)OC(=O)N1CCC(C(=O)O)(n2cccn2)CC1 | 159 to 161
99 | Nc1nnc(-c2ccc(Br)c(F)c2)s1 | 219 to 221
100 | O=C(CBr)c1ccc(N2CCCC2=O)cc1 | 130 to 132
101 | CC(N)(C(N)=O)c1cccc(Cl)c1 (centres undefined) | 103 to 105
102 | O=C(O)c1c(F)cc(OC(F)F)cc1F | 106 to 108
103 | COc1ccccc1-c1nn(-c2ccccc2)cc1C(=O)O | 195 to 197
104 | NC(=O)CCOc1ccccc1N | 98 to 100
105 | Cc1ccc(N2N=C(Br)CC2C(=O)O)cc1 (centres undefined) | 79 to 81
106 | COc1ccc(S(N)(=O)=O)cc1NC(=O)CCl | 169 to 171
107 | O=S(=O)(Cl)c1ccc(S(F)(F)(F)(F)F)cc1 | 82 to 84
108 | C=Cc1nc(-c2cccc(Cl)c2)no1 | 51 to 53
109 | Nc1ccnc2nc(C(F)(F)F)nn12 | 221 to 223
110 | COC(=O)Nc1ccc(Br)cc1 | 122 to 124
111 | CCOc1ccc(S(N)(=O)=O)c2ccccc12 | 168 to 170
112 | Cc1cc(C(=O)CBr)ccc1O | 119 to 121
113 | O=C1CCCc2ccccc2N1 | 129 to 131
114 | Nc1ccccc1C(=O)NCc1cccnc1 | 119 to 121
115 | CCOC(=O)/C(=C(\O)CCl)c1nc(C)cs1 | 76 to 78
116 | CC1CCCN(Cc2csc(N)n2)C1 (centres undefined) | 136 to 138
117 | CN(C)c1ccc(C#N)c(F)c1 | 56 to 58
118 | CC(C)NC(=O)Nc1ccccc1[N+](=O)[O-] | 169 to 171
119 | CC(C)NC(=O)NCc1ccc(C(=O)O)cc1 | 168 to 170
120 | CC(C)CNC(N)=S | 99 to 101

Row | SMILES | melting point [°C]
121 | O=C(O)c1cc([N+](=O)[O-])ccc1N1CCCCC1 | 194 to 196
122 | CSc1ccc(OCCCl)cc1 | 63 to 65
123 | CCc1ccc(C(=O)N2CCC(C(=O)O)CC2)o1 | 112 to 114
124 | COc1ccc(Nc2nc3cc(S(=O)(=O)N4CCOCC4)ccc3o2)cc1 | 219 to 221
125 | Brc1cccn2cnnc12 | 184 to 186
126 | CC(C)CC(=O)Nc1ccc(C(=O)O)cc1F | 257 to 259
127 | CC(C)c1nc(-c2cccc3ncccc23)n[nH]1 | 143 to 145
128 | Cn1c(=O)oc(=O)c2cc([N+](=O)[O-])ccc21 | 180 to 182
129 | CC(Cl)C(=O)NCC(F)(F)F (centres undefined) | 42 to 44
130 | C=CC(=O)Nc1ccc(OC)c(OC)c1 | 102 to 104
131 | Cc1ccc(C(N)=O)c(F)c1 | 145 to 147
132 | CC(C)c1noc(-c2ccc(Br)cc2)n1 | 29 to 31
133 | Nc1cc(C2CC2)nn1-c1ccccc1 | 134 to 136
134 | Oc1cccc(CNCC2CC2)c1 | 99 to 101
135 | Clc1cn[nH]c1 | 65 to 67
136 | O=C(O)c1cc(-c2ccccc2Cl)[nH]n1 | 225 to 227
137 | COc1cc(C2(C(=O)O)CCCC2)ccc1C | 163 to 165
138 | NC(=NO)c1ccc(-n2cnc3ccccc32)nc1 | 214 to 216
139 | CCCC1CCC(=O)NC1=O (centres undefined) | 76 to 78
140 | CC1CCN(CC(O)CN)CC1 (centres undefined) | 63 to 65
141 | CN1C(=O)CCc2cc(N)ccc21 | 101 to 103
142 | COc1ccc(C(=O)O)cc1S(=O)(=O)NC(C)(C)C | 218 to 220
143 | O=C(O)C1CCCN1C(=O)C1CCCC1 (centres undefined) | 125 to 127
144 | NS(=O)(=O)NCc1ccccc1 | 107 to 109
